Here are results for 27 compounds from patent publication US8648092B2, “Imidazo[1,2-a]pyridine derivatives: preparation and pharmaceutical applications” (MEI Pharma, priority 2005, dated 2014).

Each structure is given as a SMILES string. Where only a bound is given, the exact number is not on record here.

For experiment [1], the target named is HDAC1 enzyme (recombinant GST-HDAC1) (Homo sapiens (Human), UniProt Q13547). Briefly: In vitro HDAC assay for determination of IC50 values (BIOMOL fluorescent-based HDAC activity assay). The experiment is classed as biochemical. The following applies: Flur de lys substrate, 2 h room temperature, read-out: IC50 (HDAC 1). Here is the method:
Biological Testing and Enzyme Assays Recombinant GST-HDAC1 Protein Expression and Purification
Human cDNA library was prepared using cultured SW620 cells. Amplification of human HDAC1 coding region from this cDNA library was cloned separately into the baculovirus expression pDEST20 vector (GATEWAY Cloning Technology, Invitrogen Pte Ltd). The pDEST20-HDAC1 construct was confirmed by DNA sequencing. Recombinant baculovirus was prepared using the Bac-To-Bac method following the manufacturer's instruction (Invitrogen Pte Ltd).
Expression of GST-HDAC1 was done by infecting SF9 cells (Invitrogen Pte Ltd) with pDEST20-HDAC1 baculovirus at MOI=1 for 48 h. Soluble cell lysate was incubated with pre-equilibrated Glutathione Sepharose 4B beads (Amersham) at 4° C. for 2 h. The beads were washed with PBS buffer for 3 times. The GST-HDAC1 protein was eluted by elution buffer containing 50 mM Tris, pH8.0, 150 mM NaCl, 1% Triton X-100 and 10 mM or 20 mM reduced Glutathione. The purified GST-HDAC1 protein was dialyzed with HDAC storage buffer containing 10 mM Tris, pH7.5, 100 mM NaCl and 3 mM MgCl2. 20% Glycerol was added to purified GST-HDAC1 protein before storage at −80° C.
In Vitro HDAC Assay for Determination of IC50 Values
The assay has been carried out in 96 well format and the BIOMOL fluorescent-based HDAC activity assay has been applied. […] Flur de lys Developer was added and the reaction was incubated for 10 min. Briefly, deacetylation of the substrate sensitizes it to the developer, which then generates a fluorophore. The fluorophore is excited with 360 nm light and the emitted light (460 nm) is detected on a fluorometric plate reader (Tecan Ultra Microplate detection system, Tecan Group Ltd.).
The analytical software, Prism 4.0 (GraphPad Software Inc) has been used to generate IC50 from a series of data.

A further experiment has as its system Colo205 cells. The experiment is described as follows: Cell-based proliferation assay for determination of GI50 values (CyQUANT). On the set-up: species or system human. The following applies: Homo sapiens. As to the method:
Cell-Based Proliferation Assay for Determination of GI50 Values
Human cancer cell lines (e.g. Colo205) were obtained from ATCC. Colo205 cells were cultivated in RPMI 1640 containing 2 mM L-Glutamine, 5% FBS, 1.0 mM Na Pyruvate. Colo205 cells were seeded in 96-wells plate at 5000 cells per well. The plates were incubated at 37° C., 5% CO2, for 24 h. Cells were treated with compounds at various concentrations for 96 h. Cell growth was then monitored using CyQUANT® cell proliferation assay (Invitrogen Pte Ltd). Dose response curves were plotted to determine GI50 values for the compounds using XL-fit (ID Business Solution, Emeryville, Calif.). GI50 is defined as the concentration of compound required for 50% inhibition of cell growth.
The cellular or growth inhibition activity results of representative compounds are shown in Table 4 below (unit in the table is micromolar).

Sequence of HDAC1 enzyme (recombinant GST-HDAC1) (Q13547 whole entry): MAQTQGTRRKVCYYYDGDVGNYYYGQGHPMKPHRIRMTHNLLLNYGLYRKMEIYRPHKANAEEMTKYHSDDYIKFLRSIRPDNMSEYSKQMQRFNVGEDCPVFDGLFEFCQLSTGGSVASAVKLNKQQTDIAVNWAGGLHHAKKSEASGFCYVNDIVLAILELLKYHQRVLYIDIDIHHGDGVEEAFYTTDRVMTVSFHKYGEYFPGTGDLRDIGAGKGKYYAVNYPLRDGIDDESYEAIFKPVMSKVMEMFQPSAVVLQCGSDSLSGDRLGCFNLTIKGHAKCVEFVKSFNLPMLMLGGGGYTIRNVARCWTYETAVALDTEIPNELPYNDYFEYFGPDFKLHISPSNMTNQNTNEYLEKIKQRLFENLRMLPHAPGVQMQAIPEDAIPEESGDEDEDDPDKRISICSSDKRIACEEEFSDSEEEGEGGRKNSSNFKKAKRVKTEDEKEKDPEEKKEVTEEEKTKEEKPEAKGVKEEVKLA

The IC50 is the concentration that gives 50% inhibition. The GI50 is the concentration giving 50% growth inhibition. The low end stands for more potent growth inhibition, the high end for less potent growth inhibition. As for `COc1cc(Nc2c(CCc3ccccc3)nc3ccc(/C=C/C(=O)NO)cn23)cc(OC)c1OC` [Compound 1, N-Hydroxy-3-[2-phenethyl-3-(3,4,5-trimethoxy-phenylamino)-imidazo[1,2-a]pyridin-6-yl]-acrylamide], the IC50 in experiment [1] worked out at 0.15 µM. This compound also returned a GI50 with Colo205 cells (COLO 205, 96 h treatment) of 2.1 µM.

In the case of `O=C(C=Cc1ccc2nc(CCc3ccccc3)c(NCc3ccc4c(c3)OCO4)n2c1)NO` [Compound 2, 3-{3-[(Benzo[1,3]-dioxol-5-ylmethyl)-amino]-2-phenethyl-imidazo[1,2-a]pyridin-6-yl}-N-hydroxyacrylamide], the IC50 in experiment [1] was 0.72 µM. The compound also returned a GI50 with Colo205 cells (COLO 205, 96 h treatment) of 3.9 µM.

Take `O=C(/C=C/c1ccc2nc(CCc3ccccc3)c(Nc3ccc(N4CCCCC4)cc3)n2c1)NO` [Compound 3, N-Hydroxy-3-[2-phenethyl-3-(4-piperidin-1-yl-phenylamino)-imidazo[1,2-a]pyridin-6-yl]-acrylamide]: in experiment [1], the IC50 stood at 0.79 µM. For the same compound, in the experiment on Colo205 cells (COLO 205, 96 h treatment), halving of growth (GI50) required 1.9 µM.

As to `O=C(/C=C/c1ccc2nc(CCc3ccccc3)c(Nc3ccc4c(c3)OCO4)n2c1)NO` [Compound 4, 3-[3-(Benzo[1,3]-dioxol-5-ylamino)-2-phenethyl-imidazo[1,2-a]pyridin-6-yl]-N-hydroxy-acrylamide], in experiment [1], the IC50 was found to be 0.64 µM. In the experiment with Colo205 cells (COLO 205, 96 h treatment), this compound registered a GI50 of 2.8 µM.

On to `COCCNc1c(CCc2ccccc2)nc2ccc(/C=C/C(=O)NO)cn12` [Compound 5, N-Hydroxy-3-[3-(2-methoxy-ethylamino)-2-phenethyl-imidazo[1,2-a]pyridin-6-yl]-acrylamide], for which the IC50 in experiment [1] is 0.35 µM. In the experiment with Colo205 cells (COLO 205, 96 h treatment), this compound showed a GI50 of 27 µM.

Take `O=C(/C=C/c1ccc2nc(CCc3ccccc3)c(NC3CCCCC3)n2c1)NO` [Compound 6, 3-(3-Cyclohexylamino-2-phenethyl-imidazo[1,2-a]pyridin-6-yl)-N-hydroxy-acrylamide]: in experiment [1], the IC50 stood at 1.4 µM. The concentration for 50% growth inhibition (GI50) with Colo205 cells (COLO 205, 96 h treatment) was determined as 42 µM.

As to `COCCNc1c(C(C)C)nc2ccc(/C=C/C(=O)NO)cn12` [Compound 7, N-Hydroxy-3-[2-isopropyl-3-(2-methoxy-ethylamino)-imidazo[1,2-a]pyridin-6-yl]-acrylamide], the IC50 in experiment [1] worked out at 2.7 µM. In the experiment on Colo205 cells (COLO 205, 96 h treatment), this compound gave a GI50 of 9.3 µM.

Regarding `COCCNc1c(CC(C)(C)C)nc2ccc(/C=C/C(=O)NO)cn12` [Compound 8, 3-[2-(2,2-Dimethyl-propyl)-3-(2-methoxy-ethylamino)-imidazo[1,2-a]pyridin-6-yl]-N-hydroxy-acrylamide], the IC50 in experiment [1] was determined as 1 µM. Besides, the concentration for 50% growth inhibition (GI50) in the experiment on Colo205 cells (COLO 205, 96 h treatment) is 14 µM.

For `CCCCCc1nc2ccc(/C=C/C(=O)NO)cn2c1NCCOC` [Compound 9, N-Hydroxy-3-[3-(2-methoxy-ethylamino)-2-pentyl-imidazo[1,2-a]pyridin-6-yl]-acrylamide], the IC50 in experiment [1] was determined as 1.3 µM. Further, the GI50 with Colo205 cells (COLO 205, 96 h treatment) amounted to 5.3 µM.

As to `COCCNc1c(CCC(=O)O)nc2ccc(/C=C/C(=O)NO)cn12` [Compound 10, 3-[6-(2-Hydroxycarbamoyl-vinyl)-3-(2-methoxy-ethylamino)-imidazo[1,2-a]pyridin-2-yl]-propionic acid], the GI50 in the experiment on Colo205 cells (COLO 205, 96 h treatment) was 39 µM.

In the case of `CCc1nc2ccc(/C=C/C(=O)NO)cn2c1NCCOC` [Compound 11, 3-[2-Ethyl-3-(2-methoxy-ethylamino)-imidazo[1,2-a]pyridin-6-yl]-N-hydroxy-acrylamide], in experiment [1], the IC50 amounted to 6 µM. In the experiment with Colo205 cells (COLO 205, 96 h treatment), this compound yielded a GI50 above 10 µM.

`CC(C)(C)Nc1c(C(=O)O)nc2ccc(/C=C/C(=O)NO)cn12` [Compound 12, 3-tert-Butylamino-6-(2-hydroxycarbamoyl-vinyl)-imidazo[1,2-a]pyridine-2-carboxylic acid] came in with a GI50 in the experiment on Colo205 cells (COLO 205, 96 h treatment) of 20 µM.

With `CCCCNc1c(CCCC)nc2ccc(/C=C/C(=O)NO)cn12` [Compound 13, 3-(2-Butyl-3-butylamino-imidazo[1,2-a]pyridin-6-yl)-N-hydroxy-acrylamide], in experiment [1], the IC50 was 0.72 µM. The same compound gave a GI50 in the experiment on Colo205 cells (COLO 205, 96 h treatment) of 8.9 µM.

For `CC(C)Nc1c(C(C)C)nc2ccc(/C=C/C(=O)NO)cn12` [Compound 14, N-Hydroxy-3-(2-isopropyl-3-isopropylamino-imidazo[1,2-a]pyridin-6-yl)-acrylamide], in experiment [1], the IC50 was 2.7 µM. The compound further yielded a GI50 with Colo205 cells (COLO 205, 96 h treatment) of 9.2 µM.

For the compound `COCCNc1c(CC(C)CC(C)(C)C)nc2ccc(/C=C/C(=O)NO)cn12` (stereo not drawn) [Compound 15, (E)-N-hydroxy-3-(3-(2-methoxyethylamino)-2-(2,4,4-trimethylpentyl)imidazo[1,2-a]pyridin-6-yl)acrylamide], the IC50 in experiment [1] came to 0.76 µM. In the experiment on Colo205 cells (COLO 205, 96 h treatment), this compound registered a 50% growth inhibitory concentration (GI50) of 16 µM.

For `COCCNc1c(CC(C)CC(C)(C)C)nc2c(/C=C/C(=O)NO)cccn12` (stereo not drawn) [Compound 16, (E)-N-hydroxy-3-(3-(2-methoxyethylamino)-2-(2,4,4-trimethylpentyl)imidazo[1,2-a]pyridin-8-yl)acrylamide], the IC50 in experiment [1] was above 10 µM. The same compound had a GI50 with Colo205 cells (COLO 205, 96 h treatment) of 20 µM.

In the case of `CCCCCc1nc2cc(/C=C/C(=O)NO)ccn2c1NCCOC` [Compound 17, (E)-N-hydroxy-3-(3-(2-methoxyethylamino)-2-pentylimidazo[1,2-a]pyridin-7-yl)acrylamide], the IC50 in experiment [1] stood at 0.3 µM. The same compound showed a GI50 in the experiment on Colo205 cells (COLO 205, 96 h treatment) of 9.9 µM.

Compound `CCCCCCc1nc2cc(/C=C/C(=O)NO)ccn2c1NCCC(=O)N(C)CC#N` [Compound 31, 3-{3-[2-(Cyanomethyl-methyl-carbamoyl)-ethylamino]-2-hexyl-imidazo[1,2-a]pyridin-7-yl}-N-hydroxy-acrylamide] yielded a GI50 in the experiment with Colo205 cells (COLO 205, 96 h treatment) of 1.9 µM.

Turning to `CCC(CC)NCc1c(C(C)(C)C)nc2cc(C=CC(=O)NO)ccn12` [Compound 68, 3-{2-tert-Butyl-3-[(1-ethyl-propylamino)-methyl]-imidazo[1,2-a]pyridin-7-yl}-N-hydroxy-acrylamide], the GI50 with Colo205 cells (COLO 205, 96 h, 96 h treatment) stood at 1.5 µM.

In the experiment with Colo205 cells (COLO 205, 96 h treatment), `CCCCN(CCCC)Cc1c(C)nc2cc(/C=C/C(=O)NO)ccn12` [Compound 81, 3-(3-Dibutylaminomethyl-2-methyl-imidazo[1,2-a]pyridin-7-yl)-N-hydroxy-acrylamide] came in with a GI50 of 0.8 µM.

In the experiment with Colo205 cells (COLO 205, 96 h treatment), `CCC(C)CN(CC)Cc1c(C(C)(C)C)nc2cc(/C=C/C(=O)NO)ccn12` (stereo not drawn) [Compound 88, 3-(2-tert-Butyl-3-{[ethyl-(2-methyl-butyl)-amino]-methyl}-imidazo[1,2-a]pyridin-7-yl)-N-hydroxy-acrylamide] yielded a GI50 of 2.2 µM.

Turning to `CCCCCCCN(CC)Cc1c(C(C)(C)C)nc2cc(/C=C/C(=O)NO)ccn12` [Compound 94, 3-{2-tert-Butyl-3-[(ethyl-heptyl-amino)-methyl]-imidazo[1,2-a]pyridin-7-yl}-N-hydroxy-acrylamide], the GI50 in the experiment on Colo205 cells (COLO 205, 96 h, 96 h treatment) is 2.7 µM.

With `CCCCc1nc2cc(/C=C/C(=O)NO)ccn2c1CN(CC)CC(C)CCC` (stereo not drawn) [Compound 113, 3-(2-Butyl-3-{[ethyl-(2-methyl-pentyl)-amino]-methyl}-imidazo[1,2-a]pyridin-7-yl)-N-hydroxy-acrylamide], growth with Colo205 cells (COLO 205, 96 h, 96 h treatment) was halved (GI50) at 0.37 µM.

In the experiment on Colo205 cells (COLO 205, 96 h treatment), `CCN(CCC(C)C)Cc1c(C)nc2cc(/C=C/C(=O)NO)ccn12` [Compound 124, 3-(3-{[Ethyl-(3-methyl-butyl)-amino]-methyl}-2-methyl-imidazo[1,2a]pyridin-7-yl)-N-hydroxy-acrylamide] gave a GI50 of 0.11 µM.

Compound `CCN(CCC(C)C)Cc1c(CC(C)C)nc2cc(/C=C/C(=O)NO)ccn12` [Compound 135, 3-(3-{[Ethyl-(3-methyl-butyl)-amino]-methyl}-2-isobutyl-imidazo[1,2-a]pyridin-7-yl)-N-hydroxy-acrylamide] had a GI50 in the experiment with Colo205 cells (COLO 205, 96 h treatment) of 0.15 µM.

On to `CCN(CCC(C)(C)C)Cc1c(CC(C)C)nc2cc(/C=C/C(=O)NO)ccn12` [Compound 136, 3-(3-{[(3,3-Dimethyl-butyl)-ethyl-amino]-methyl}-2-isobutyl-imidazo[1,2-a]pyridin-7-yl)-N-hydroxy-acrylamide], for which the GI50 with Colo205 cells (COLO 205, 96 h treatment) was 0.17 µM.

As for `CCN(CCC(C)C)Cc1c(CCC(C)C)nc2cc(/C=C/C(=O)NO)ccn12` [Compound 142, 3-[3-{[Ethyl-(3-methyl-butyl)-amino]-methyl}-2-(3-methyl-butyl)-imidazo[1,2-a]pyridin-7-yl]-N-hydroxy-acrylamide], in the experiment with Colo205 cells (COLO 205, 96 h treatment), it took 0.13 µM to inhibit growth by half (GI50).
